In publication PMC12381781, “Structural and functional insights into the selective inhibition of mutant tau aggregation by purpurin and oleocanthal in frontotemporal dementia” (Protein Science : A Publication of the Protein Society, 2025):

Key:
[1] = test system: CCRF-CEM (human leukemic lymphoblast) cells; test: MTS cytotoxicity assay, CCRF-CEM cells; type: cell-based; details: 0-100 µM, 72 h
Procedure: Figure S16. Cytotoxic activity of PUR and OLC. Tau Biosensor and CCRF-CEM (human leukemic lymphoblast) cells were treated with increasing concentrations (0-100 µM) of PUR and OLC for 72 h. Cell viability was then assessed using the MTS assay. CCRF-CEM (human leukemic lymphoblasts) cells, known for their high sensitivity to cytotoxic agents ^1, were used as positive controls. […] Calculated IC50 values are indicated in the graphs. Mean ± SEM (n = 3).

[2] = test system: SY5Y-TauP301L-EGFP cells; test: SH-SY5Y seeding assay, Triton X-100 fractionation and western blot; type: cell-based
Text: SH‐SY5Y cells were transfected with the AAVS1 CAG rtTA3 TauP301L 2N4R‐EGFP plasmid using ScreenFect‐A‐plus Transfection Reagent (ScreenFect GmbH). AAVS1 CAG rtTA3 TauP301L 2N4R‐EGFP was a gift from Gerold Schmitt‐Ulms (Addgene plasmid #132393; http://n2t.net/addgene:132393; RRID: Addgene_132393). Stable cell lines expressing TauP301L 2N4R‐EGFP were generated via puromycin selection and are referred to as SY5Y‐TauP301L‐EGFP cells. Stable expression of the inducible TauP301L‐EGFP construct was confirmed by fluorescence microscopy and Western blot after doxycycline induction.
SH‐SY5Y and SY5Y‐TauP301L‐EGFP cells were plated at 250,000 cells per well on Geltrex™‐coated culture plates (Gibco, # A1413201) and maintained in complete DMEM. After 24 h, the medium was replaced with CTS™ Neurobasal™ A Medium (Gibco, # A1371201) supplemented with 1× B‐27™ Supplement (ThermoFisher Scientific, #17504044), […] L‐glutamine, and 1% Penicillin–Streptomycin (complete neurobasal medium). Cells were differentiated by treatment with 10 μM all‐trans‐retinoic acid (RA; Sigma‐Aldrich, # R2625) for 72 h. The differentiation was continued in complete neurobasal media supplemented with 10 μM RA and 50 ng/mL recombinant human brain‐derived neurotrophic factor (BDNF) (R&D Systems, #248‐BDB‐250) for another 72 h.
Differentiated SY5Y‐TauP301L‐EGFP cells were pre‐treated with 0.5 μg/mL doxycycline (Sigma‐Aldrich, # D3447) for 24 h to induce the expression of TauP301L‐EGFP. Doxycycline was maintained in the cell culture media throughout the seeding assay. Cells were transduced with tau aggregation reaction products, standardized to 100 nM tau peptide. Transduction mixtures were prepared by combining the tau aggregation reaction products with TurboFect™ Transfection Reagent (Thermo Fisher Scientific Inc.) in Opti‐MEM™. The mixture was briefly vortexed and incubated at room temperature for 15 min before adding to cells. After 72 h, cells were processed for Triton X‐100 fractionation and western blot analysis, as described below.
Triton X‐100 soluble and insoluble fractions were prepared as described previously with minor modifications (Annadurai, Malina, Malohlava, et al., [2022]). SY5Y‐TauP301L‐EGFP cells were harvested in 1× Tris‐buffered saline (TBS) containing 0.05% Triton X‐100, supplemented with protease and phosphatase inhibitors (Roche, #04693116001 and #04906837001). After centrifugation at 1000 × g for 10 min at 4°C, the supernatant was ultracentrifuged at 24,400 × g for 1 h at 4°C to separate Triton X‐100 soluble and insoluble fractions. The insoluble fraction was resuspended in radioimmunoprecipitation assay (RIPA) buffer (Thermo Fisher Scientific, #89901) with protease and phosphatase inhibitors for further analysis.
Equal volumes of soluble and insoluble fractions were resolved by SDS‐PAGE and transferred onto nitrocellulose membranes using the Trans‐Blot Turbo Transfer System (Bio‐Rad). […]
Densitometric analysis of insoluble tau bands was performed by first normalizing total tau signal intensities to GAPDH levels measured in the corresponding soluble fractions. […]

[3] = set-up: method as in Viswanathan et al., [2020]; details: in vitro studies; ref Viswanathan et al., [2020]; cited from earlier work
[4] = cells transduced with P301L peptide aggregation products formed with compound vs without, 72 h

With C/C=C(/C=O)[C@@H](CC=O)CC(=O)OCCc1ccc(O)cc1 [OLC, oleocanthal] the IC50 [1] was > 10 µM, the “pSer262, T22, or total tau levels, soluble fractions” value ([2]; P301L peptide aggregation products, across treatments) was “no significant differences” and the “T22 or pSer262 tau, soluble and insoluble fractions” value ([2]; WT peptide aggregation products formed with compound vs control) was “no substantial differences”. The “oligomeric tau T22 level, insoluble fraction” value [2, 4] was “significantly reduced”, the “pSer262 tau level, insoluble fraction” value [2, 4] was “significantly reduced” and the “total tau level, insoluble fraction” value [2, 4] was “significantly reduced”.

For O=C1c2ccccc2C(=O)c2c(O)c(O)cc(O)c21 [PUR, purpurin], the BBB permeation [3] is listed as “can permeate the BBB”.
